Each structure is given as a SMILES string. Values joined by “and” are separate entries in the source; they are usually repeats but may differ in a detail not shown here. Equal entries are not always repeated. Where two headings read alike, the source gives them in different places.

A word on the viability: it is the share of living cells, or the viability signal relative to a control.

For one data set, the system named is KCKO cells. As to the kind of experiment: Viability assay (CELLTITER-GLO), 24 hours treatment. It is filed as cell-based, murine. How it is done:
In these experiments, viability assays after 24 hours treatment of human and murine pancreatic cancer cell lines and synovial sarcoma cell lines with SW V-49s or its parent compounds SV119 and Erastin, both singly and in combination, were performed. […] In comparison.
Cytotoxicity of the drugs was evaluated by CELLTITER-GLO®. Luminescent cell viability assay (Promega, Madison, Wis.). Pancreatic cell lines were plated at a density of 2×10^4/well in white 96 well, clear bottom plates for 24 hours prior to treatment. Drugs were dissolved in DMSO and serially diluted in culture medium to achieve the final concentration of DMSO less than 1%. Cells were then treated for 24 hours and 100 μl of the CELLTITER-GLO® reagent was added to each well. The contents of the plates were mixed using an orbital shaker and subsequently incubated for 10 minutes at room temperature. Luminescence signal was measured using a multi-mode microplate reader (BioTek instruments. Winooski, Vt.). Different drug concentrations were assayed in triplicate. To evaluate the efficacy of the drugs, IC50 of the compounds was calculated on a panel of human and mouse derived pancreatic cancer cell lines in vitro. Cells were treated for 24 hours with SW V-49s, SV119, Erastin, and an equimolar mixture of SV119 and Erastin, then CELLTITER-GLO® viability assay was performed.
Background: ATP-based viability assays read luminescence as a measure of living cells.

A further data set has as its target T1, sigma-2 receptors (Homo sapiens, UniProt Q5BJF2).
T1 construct: endogenous in cells
Put plainly: Competitive inhibition of internalization of fluorescent sigma-2 ligand SW 120 (flow cytometry). It is filed as cell-based. Conditions: increasing concentrations of SW V-49s (0, 10, 30, 50), 30 min 37 °C, then SW120; FIG. 3. How it is done: In these experiments, competitive binding assays of SW V-49s with the fluorescently labeled sigma-2 ligand SW 120 of structure
AsPC-1 cells (5×10^5/well) were seeded into a 6 well plate for 24 hours before treatment. The cells were then incubated with […] of SW V-49s for 30 minutes at 37° C. Subsequently, 10 nM of fluorescently labeled sigma-2 ligand SW120 was added to the cell culture medium containing SW V-49s. After 30 minute of incubation at 37° C., cells were washed twice with phosphate buffered saline (PBS) and harvested with 0.05% trypsin EDTA (Life Technologies. Grand Island, N.Y.). Thereafter, the cells were centrifuged at 1000×g for 5 minutes and the pellets were washed twice with PBS. Internalization of SW 120 was determined by flow cytometer (FACSCalibur™, BD Biosciences, San Jose, Calif.).

For the next data set, the system named is AsPC-1 cells. Put plainly: CELLTITER-GLO viability after pre-treatment with NAC or ZVAD. The class given is cell-based. As to conditions: Homo sapiens. The procedure: To assess the roles of these two mechanisms on the induction of cell death, the effects of pan-caspase inhibitor and antioxidant on the efficacy of SW V-49s were tested. In these experiments, AsPC-1 cells were pre-treated with 10 mM of the antioxidant N acetyl cysteine (NAC), 20 μM of pan-caspase inhibitor ZVAD, and DMSO as a control for 1 hour. Then, the 3 groups were treated with 10 μM of SW V-49s for 5 hours, after which a CELLTITER-GLO® viability assay was performed.

Data set [1] is described as follows: Toxicity study (necropsy, CBC, clinical chemistry) in tumor bearing mice. It is filed as in vivo, C57BL/6 mice. The procedure: Six adult female mice were submitted to necropsy. The strain designation of the mice was C57BL/6. […]
Animal studies were performed according to the animal studies protocol approved by Washington University Institutional Animal Care Facility. In vivo studies with mice were performed to compare the effects of SW V-49s, SV119. Erastin, a combination of SV119 with Erastin, and vehicle. […] C57BL/6 mice (6 weeks old. National Cancer Institute Laboratories) were injected in the right flank with 200 μL single cell suspension of KCKO cells in RPMI medium (25×10^4/10^5 cells per mouse). Mice were randomized into four groups (n=15). Treatment was started when the mean tumor diameter was ^˜5 mm. […] Erastin, equimolar mix of SV119 and Erastin. Tumors were measured every other day with a digital caliper. Several mice from different treatment groups were sent to the Division of Comparative Medicine in our institution for pathologic evaluation. Blood was collected for complete blood count (CBC) and biochemical analysis (AST, ALT, BUN, total bilirubin, and Cr). Organs were examined grossly and histologically.

Setting [2] is: Table 2, individual mouse, listed as test drug.
[3] abbreviates: Table 3 differential, individual mouse.
The mark [4] stands for this setting: Table 3 differential, individual mouse, listed as test drug.
[5] abbreviates: Table 4, individual mouse, listed as test drug.
[6] abbreviates: Table 6, individual mouse (Drug 1-3), treated 10 days.
Where [7] appears, read: Table 7, individual mouse (Drug 1-3), treated 10 days.
Setting [8] is: daily i.p. 375 nmoles for 10 days.

T1 sequence (Q5BJF2 whole entry): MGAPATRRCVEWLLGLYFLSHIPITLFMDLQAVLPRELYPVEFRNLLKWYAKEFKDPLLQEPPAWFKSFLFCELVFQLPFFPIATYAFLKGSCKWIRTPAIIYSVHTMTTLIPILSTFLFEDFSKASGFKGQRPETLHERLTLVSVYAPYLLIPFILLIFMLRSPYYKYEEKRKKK

In the case of `COc1ccc(C)cc1NC(=O)OC1C[C@H]2CCC[C@@H](C1)N2CCCCCCN` (stereo partly shown) [SV119, reference compound], the IC50 in the data set on KCKO cells (24 hours, mean ± SEM, n ≥ 3, read-out: IC50 ± SEM, KCKO) was 68.7 ± 10.1 µM.
As to `CCOc1ccccc1-n1c(C(C)N2CCN(C(=O)COc3ccc(Cl)cc3)CC2)nc2ccccc2c1=O` (stereo not shown) [Erastin], the IC50 with KCKO cells (Mus musculus, 24 h, read-out: IC50 ± SEM, KCKO) is above 150 µM.
In the case of `CCOc1ccccc1-n1c(CN2CCN(C(=O)COc3ccc(CNCCCCCCN4C5CCCC4CC(OC(=O)Nc4cc(C)ccc4OC)C5)cc3)CC2)nc2ccccc2c1=O.O=C(O)C(=O)O` (stereo not shown) [SW V-49s], on sigma-2 receptors, the “blocking of SW 120 internalization” value was “efficient blocking of SW 120 internalization”. Moreover, in the data set with KCKO cells (Mus musculus, 24 h, read-out: IC50 concentration), the IC50 came to 2.2 µM. The IC50 in the data set on KCKO cells (Mus musculus, 24 hours, mean ± SEM, n ≥ 3, read-out: IC50 ± SEM, KCKO) came out at 2.4 ± 0.2 µM. The viability at 10 µM in the data set on AsPC-1 cells (ASPC1, 10 μM SW V-49s 5 hours after 1 hour pre-treatment with 20 μM ZVAD) turned out to be 91%. Besides, the viability at 10 µM in the data set on AsPC-1 cells (ASPC1, 10 μM SW V-49s 5 hours after 1 hour pre-treatment with 10 mM NAC) was 63%. In the data set with AsPC-1 cells (ASPC1, 10 μM SW V-49s alone, 5 hours (DMSO pre-treatment)), the viability at 10 µM amounted to 39%. In addition, in data set [1] (Table 2, individual mouse, daily i.p. over 2 weeks, listed as test drug), the WBC is 5.68 10^3/μL and 3.34 10^3/μL and 4.16 10^3/μL. Further, the Platelets in data set [1] (Table 2, individual mouse, * mild platelet clumping, listed as test drug) is 749* 10^3/μL and 885 10^3/μL and 611 10^3/μL. Besides, in data set [1] (setting [2]), the HGB was 10.7 g/dL and 10.5 g/dL and 9.8 g/dL; the MCH was 12.3 pg and 12.5 pg and 12.8 pg; the MCHC is 27.2% and 24.8% and 26.0%; the MCV is 45.3 u and 50.5 u and 49.2 u. Also, in data set [1] (setting [2]), the PCV is 39.3% and 42.4% and 37.7%; the RBC is 8.67 10^6/μL and 8.40 10^6/μL and 7.66 10^6/μL. In data set [1] (setting [3]), the Bands came to 0%, the Basophils was determined as 0%, the Eosinophils worked out at 0% and the Nrbe amounted to 0%. Besides, in data set [1] (setting [4]), the Lymphocytes was 96% and 78% and 87%; the Monocytes was 2% and 4% and 0%; the Neutrophils was 2% and 18% and 13%. In data set [1] (setting [5]), the ALT was 138 u/L and 64 u/L and 63 u/L; the AST is 167 u/L and 147 u/L and 55 u/L; the BUN is 19 mg/dL and 22 mg/dL and 17 mg/dL; the Creatinine is 0.22 mg/dL and 0.21 mg/dL and 0.24 mg/dL. Moreover, in data set [1] (setting [5]), the Glucose is 178 mg/dL and 310 mg/dL and 180 mg/dL; the “Total Protein” value is 5.1 g/dL (2×) and 5.7 g/dL. In data set [1] (setting [6]), the HGB is 9.8 g/dL and 10.7 g/dL and 10.5 g/dL; the MCH is 12.8 pg and 12.3 pg and 12.5 pg; the MCHC was 26.0% and 27.2% and 24.8%; the MCV was 49.2 u and 45.3 u and 50.5 u. In data set [1] (setting [6]), the PCV was 37.7% and 39.3% and 42.4%; the Platelets was 611 10^3/μL and 749 10^3/μL and 885 10^3/μL; the RBC is 7.66 10^6/μL and 8.67 10^6/μL and 8.40 10^6/μL; the WBC was 4.16 10^3/μL and 5.68 10^3/μL and 3.34 10^3/μL. Further, in data set [1] (setting [7]), the ALT is 138 μ/L and 64 μ/L and 63 μ/L; the AST is 167 μ/L and 147 μ/L and 55 μ/L; the BUN is 19 mg/dL and 22 mg/dL and 17 mg/dL; the Creatinine was 0.22 mg/dL and 0.21 mg/dL and 0.24 mg/dL. Besides, in data set [1] (setting [7]), the Glucose is 178 mg/dL and 310 mg/dL and 180 mg/dL; the “Total Protein” value was 5.1 g/dL (2×) and 5.7 g/dL. Moreover, in data set [1] (setting [8]), the “mice behavior and drug-related deaths” value is on record as “no gross abnormalities in the mice behavior (grooming) or any drug-related deaths were recorded”; the “organs analyses (brain, heart, lungs, alimentary tract, kidneys, liver and pancreas), adverse drug effects” value is on record as “did not reveal any obvious signs of adverse drug effects, except a mild peritonitis”; the “serum labs (CBC, AST, ALT, BUN, total bilirubin, and Cr)” value was “unchanged”. Also, in data set [1] (daily i.p. over 2 weeks), the “histopathologic finding in drug-treated versus control animals” value was “minimal to moderate chronic peritonitis”. Also, the Body weight in data set [1] (pre-necropsy, individual mouse, daily i.p. over 2 weeks, listed as test drug) was 21 grams and 19 grams and 22 grams. Moreover, the “differences in cell counts (CBC) versus vehicle” value in data set [1] (treated for 10 days, Table 6) is recorded as “not statistically significant”.

For the origin of these results see patent publication US10975069B2, “Sigma-2 receptor ligand drug conjugates as antitumor compounds, methods of synthesis and uses thereof” (priority 2014, dated 2021).
